Source: patent publication US9526796B2, “Peptide-based in vivo siRNA delivery system” (priority 2010, dated 2016)
Non-standard residues stand in square brackets, D forms with d. No end group written: not given here. *: point of attachment. Nle = CCCC[C@H](N)C(=O)O; Cbz = O=C(OCc1ccccc1)*

Tested on: ApoB
Test: Knockdown of endogenous serum ApoB in mice after co-injection of masked melittin delivery peptide and ApoB siRNA-cholesterol conjugate
Format: in vivo
Description: RNAi polynucleotide conjugates and masked melittin peptides were synthesized as described above. Six to eight week old mice (strain C57BL/6 or ICR, ˜18-20 g each) were obtained from Harlan Sprague Dawley (Indianapolis Ind.). Mice were housed at least 2 days prior to injection. Feeding was performed ad libitum with Harlan Teklad Rodent Diet (Harlan, Madison Wis.). Mice were injected with 0.2 mL solution of delivery peptide and 0.2 mL siRNA conjugates into the tail vein. For simultaneous injection of delivery peptide and siRNA, the siRNA-conjugate was added to modified peptide prior to injection and the entire amount was injected. The composition was soluble and nonaggregating in physiological conditions. Solutions were injected by infusion into the tail vein.
Mice were fasted for 4 h (16 h for rats) before serum collection by submandibular bleeding. For rats blood was collected from the jugular vein. Serum ApoB protein levels were determined by standard sandwich ELISA methods. Briefly, a polyclonal goat anti-mouse ApoB antibody and a rabbit anti-mouse ApoB antibody (Biodesign International) were used as capture and detection antibodies respectively. An HRP-conjugated goat anti-rabbit IgG antibody (Sigma) was applied afterwards to bind the ApoB/antibody complex. Absorbance of tetramethyl-benzidine (TMB, Sigma) colorimetric development was then measured by a Tecan Safire2 (Austria, Europe) microplate reader at 450 nm.
Melittin was reversibly modified with CDM-NAG as described above. The indicated amount of melittin was then co-injected with the 200 μg ApoB siRNA-cholesterol conjugate. Effect on ApoB levels were determined as described above.
Melittin was reversibly modified with CDM-NAG as described above. The indicated amount of melittin was then co-injected with 50 μg ApoB siRNA-cholesterol conjugate. Effect on ApoB levels were determined as described above.
Melittin was reversibly modified with CDM-NAG (5×) as described above. The indicated amount of melittin was then co-injected with the indicated amount of ApoB siRNA-cholesterol conjugate. Effect on ApoB levels were determined as described above.
Melittin was reversibly modified with the indicated amount of CDM-NAG as described above. 50 μg melittin was then co-injected with the 100 μg ApoB siRNA-cholesterol conjugate. Effect on ApoB levels were determined as described above.
Melittin peptides having the indicated sequence were reversibly modified with CDM-NAG (5×) as described above. The indicated amount of melittin was then co-injected with the indicated amount of ApoB siRNA-cholesterol conjugate. Effect on ApoB levels were determined as described above.
Melittin peptides containing the indicated PEG amino terminal modifications were synthesized as described above. The PEG amino terminal modified melittin peptides were then reversibly modified with 5×CDM-NAG as described above. The indicated amount of Melittin was then co-injected with the 100-200 μg ApoB siRNA-cholesterol conjugate. Effect on ApoB levels were determined as described above. Addition of PEG less than 5 kDa in size decreased toxicity of the melittin peptides.

[1] = CDM-NAG (5×), 400 μg peptide per mouse, 200 μg siRNA per mouse
[2] = CDM-NAG (5×), 100 μg peptide per mouse, 100 μg siRNA per mouse
[3] = CDM-NAG (5×), 400 μg peptide per mouse, 100 μg siRNA per mouse

| Substance | percent knockdown [2] | percent knockdown [3] | other results |
| --- | --- | --- | --- |
| (Ac-CIGAVLKVLTTGLPALISWIKRKRQQ-NH2)2 |  |  | percent knockdown [1]: 45% |
| Ac-CIGAVLKVLTTGLPALISWIKRKRQQ-NH2 |  |  | percent knockdown [1]: 85% |
| Acetyl-dMel-NH2 (Seq ID 107): melittin peptide derivative (Ac-G[dI]G[dA][dI][dL][dK][dV][dL][dA][dT]G[dL][dP][dT][dL][dI][dS][dW][dI][dK][dN][dK][dR][dK][dQ]-NH2; SMILES CC[C@@H](C)[C@@H](NC(=O)CNC(C)=O)C(=O)NCC(=O)N[C@H](C)C(=O)N[C@@H](C(=O)N[C@H](CC(C)C)C(=O)N[C@H](CCCCN)C(=O)N[C@@H](C(=O)N[C@H](CC(C)C)C(=O)N[C@H](C)C(=O)N[C@@H](C(=O)NCC(=O)N[C@H](CC(C)C)C(=O)N1CCC[C@@H]1C(=O)N[C@@H](C(=O)N[C@H](CC(C)C)C(=O)N[C@@H](C(=O)N[C@H](CO)C(=O)N[C@H](Cc1c[nH]c2ccccc12)C(=O)N[C@@H](C(=O)N[C@H](CCCCN)C(=O)N[C@H](CC(N)=O)C(=O)N[C@H](CCCCN)C(=O)N[C@H](CCCNC(=N)N)C(=O)N[C@H](CCCCN)C(=O)N[C@H](CCC(N)=O)C(N)=O)[C@H](C)CC)[C@H](C)CC)[C@H](C)O)[C@H](C)O)C(C)C)[C@H](C)CC) | 89% |  |  |
| Apis Mellifera (Big Honey Bee; Seq ID 50): Apis mellifera melittin |  | 72% |  |
| C-Mel G1L (Seq ID 51): melittin peptide derivative (CLIGAILKVLATGLPTLISWIKNKRKQ; N-terminal cysteine; melittin-like peptide derive from Apis florea) | 89% |  |  |
| C-dMel G1Nle (Seq ID 52): melittin peptide derivative (C[Nle]IGAILKVLATGLPTLISWIKNKRKQ; also: D-amino acids (dMel), positions not given here) | 84% |  |  |
| CBZ-Mel (Seq ID 108): melittin peptide derivative (Cbz-GIGAILKVLATGLPTLISWIKNKRKQ) |  |  | percent knockdown (CDM-NAG (5×), 100 μg peptide per mouse, 80 μg siRNA per mouse): 96% |
| CFK-G1L dMel-C (Seq ID 69): melittin peptide derivative (CFKLIGAILKVLATGLPTLISWIKNKRKQC; not fully specified (some residues); cysteine pairing not given here) | 79% |  |  |
| CKLK-Mel G1L (Seq ID 57): melittin peptide derivative; in Table 9 also with amino terminal NAG-(PEG)2/4/8 or PEG (5k) (CKLKLIGAILKVLATGLPTLISWIKNKRKQ; N-terminal CKLK extension; melittin-like peptide derive from Apis florea) |  |  | percent knockdown (5× CDM-NAG, amino terminal NAG-(PEG)2, 25 μg peptide, 100 μg siRNA): 15%; percent knockdown (5× CDM-NAG, amino terminal NAG-(PEG)2, 50 μg peptide, 100 μg siRNA): 83%; percent knockdown (5× CDM-NAG, amino terminal NAG-(PEG)4, 25 μg peptide, 100 μg siRNA): 58%; percent knockdown (5× CDM-NAG, amino terminal NAG-(PEG)4, 50 μg peptide, 100 μg siRNA): 81%; percent knockdown (5× CDM-NAG, amino terminal NAG-(PEG)4, 100 μg peptide, 100 μg siRNA): 94%; percent knockdown (5× CDM-NAG, amino terminal NAG-(PEG)8, 25 μg peptide, 100 μg siRNA): 58%; percent knockdown (5× CDM-NAG, amino terminal NAG-(PEG)8, 50 μg peptide, 100 μg siRNA): 89%; percent knockdown (5× CDM-NAG, amino terminal NAG-(PEG)8, 100 μg peptide, 100 μg siRNA): 96%; percent knockdown (5× CDM-NAG, amino terminal PEG (5k), 100 μg peptide, 100 μg siRNA): 90%; percent knockdown (5× CDM-NAG, no PEG modification, 150 μg peptide, 100 μg siRNA): 91%; percent knockdown (5× CDM-NAG, no PEG modification, 400 μg peptide, 100 μg siRNA): 97%; percent knockdown (CDM-NAG (5×), 150 μg peptide per mouse, 100 μg siRNA per mouse): 91% |
| CKLK-dMel G1Nle (Seq ID 112): melittin peptide derivative (CKLK[Nle]IGAILKVLATGLPTLISWIKNKRKQ; also: D-amino acids (dMel), positions not given here) |  |  | percent knockdown (CDM-NAG (5×), 200 μg peptide per mouse, 100 μg siRNA per mouse): 84% |
| Dimethyl G-Mel G1L (Seq ID 53): melittin peptide derivative (dimethyl-GLIGAILKVLATGLPTLISWIKNKRKQ) | 91% |  |  |
| G1A (Seq ID 2): melittin peptide derivative (AIGAILKVLATGLPTLISWIKNKRKQ; melittin-like peptide derive from Apis florea) | 88% |  |  |
| G1C (Seq ID 3): melittin peptide derivative (CIGAILKVLATGLPTLISWIKNKRKQ; melittin-like peptide derive from Apis florea) | 37% |  |  |
| G1F dMel (Seq ID 4): melittin peptide derivative ([dF][dI]G[dA][dI][dL][dK][dV][dL][dA][dT]G[dL][dP][dT][dL][dI][dS][dW][dI][dK][dN][dK][dR][dK][dQ]) |  |  | percent knockdown (CDM-NAG (5×), 100 μg peptide per mouse, 50 μg siRNA per mouse): 94% |
| G1H (Seq ID 5): melittin peptide derivative (HIGAILKVLATGLPTLISWIKNKRKQ; melittin-like peptide derive from Apis florea) |  | 78% |  |
| G1L Mel (1-23) (Seq ID 71): melittin peptide derivative (LIGAILKVLATGLPTLISWIKNK; melittin-like peptide derive from Apis florea) |  | 69% |  |
| G1L Mel-Cys (Seq ID 63): melittin peptide derivative (LIGAILKVLATGLPTLISWIKNKRKQC; C-terminal cysteine; melittin-like peptide derive from Apis florea) |  | 82% |  |
| G1L Mel-KLKC (Seq ID 65): melittin peptide derivative (LIGAILKVLATGLPTLISWIKNKRKQKLKC; C-terminal KLKC extension; melittin-like peptide derive from Apis florea) | 97% |  |  |
| G1L d(1-11)-1(12-26) (Seq ID 109): melittin peptide derivative ([dL][dI]G[dA][dI][dL][dK][dV][dL][dA][dT]GLPTLISWIKNKRKQ) | 70% |  |  |
| G1L dMel-C (Seq ID 114): melittin peptide derivative ([dL][dI]G[dA][dI][dL][dK][dV][dL][dA][dT]G[dL][dP][dT][dL][dI][dS][dW][dI][dK][dN][dK][dR][dK][dQ]C) |  |  | percent knockdown (CDM-NAG (5×), 50 μg peptide per mouse, 100 μg siRNA per mouse): 93% |
| G1L retro-dMel-KLK-PEG(5k) (Seq ID 115): melittin peptide derivative (KLK[dQ][dK][dR][dK][dN][dK][dI][dW][dS][dI][dL][dT][dP][dL]G[dT][dA][dL][dV][dK][dL][dI][dA]G[dI][dL]; also: PEG 5k conjugated) | 32% |  |  |
| G1L retroMel-KLK-Stearoyl (Seq ID 75): melittin peptide derivative (KLKQKRKNKIWSILTPLGTALVKLIAGIL; also: stearoyl, site not given here) |  | 50% |  |
| G1L retroMel-Stearoyl (Seq ID 74): melittin peptide derivative (QKRKNKIWSILTPLGTALVKLIAGIL; also: stearoyl, site not given here) |  | 56% |  |
| G1L, G12L (Seq ID 22): melittin peptide derivative (LIGAILKVLATLLPTLISWIKNKRKQ; melittin-like peptide derive from Apis florea) |  | 93% |  |
| G1L, I2L, 15L, I17L, I20L (Seq ID 43): melittin peptide derivative (LLGALLKVLATGLPTLLSWLKNKRKQ; melittin-like peptide derive from Apis florea) |  | 96% |  |
| G1L, I2Nle, I5Nle, I17Nle, I20Nle (Seq ID 44): melittin peptide derivative (L[Nle]GA[Nle]LKVLATGLPTL[Nle]SW[Nle]KNKRKQ) | 99% |  |  |
